Literature values as cited in patent US7041676B2, “Compounds, compositions, and methods” (Cytokinetics, Inc., priority 2002, dated 2006).

Test system: A549 cells
Settings: data provided by National Cancer Institute, Developmental Therapeutic Program

Point of comparison: `COc1cccc2c1C(=O)c1c(O)c3c(c(O)c1C2=O)C[C@@](O)(C(=O)CO)C[C@@H]3O[C@H]1C[C@H](N)[C@H](O)[C@H](C)O1` [doxorubicin], GI50 63 nM. Against it:
- O=c1[nH]cc(F)c(=O)[nH]1 [5-fluorouracil] — 16-fold higher, 1000 nM
- NC(=O)NO [hydroxyurea] — 7900-fold higher, 500000 nM
- CC(=O)O[C@H]1C(=O)[C@@]2(C)[C@H]([C@H](OC(=O)c3ccccc3)[C@]3(O)C[C@H](OC(=O)[C@H](O)[C@@H](NC(=O)c4ccccc4)c4ccccc4)C(C)=C1C3(C)C)[C@]1(OC(C)=O)CO[C@@H]1C[C@@H]2O [paclitaxel] — 16-fold lower, 4 nM
